According to PubChem BioAssay AID449762 (Southern Research Specialized Biocontainment Screening …, 2010):
Inconclusive results are not listed.

System: M. tuberculosis H37Rv growth inhibition, 7H9 media
Test: M. tuberculosis growth inhibition, HTS (AID 449762);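 also: bacterial growth assessed after seven days of incubation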
Conditions: for IC90: measured here: IC90 growth inhibition

| Structure (SMILES) | IC50 | IC90 |
| --- | --- | --- |
| COc1ccccc1C(=O)NC(=Nc1nc2ccccc2o1)NC(=O)c1ccccc1OC | 96.3 µM | > 100 µM |
| CN(CC(=O)Nc1ccccc1Br)C(=O)c1cccnc1Nc1cccc(C(F)(F)F)c1 | 32 µM | 40.7 µM |
| Cc1ccc(C(=O)N2N=C(c3ccc(NS(C)(=O)=O)cc3)CC2c2cccs2)cc1 (configuration not stated) | 12.4 µM | 21.2 µM |
| c1ccc(Cn2nnc3c(N4CCc5ccccc5C4)ncnc32)cc1 | 19.7 µM | 72.8 µM |
| COc1cc(CNCCc2ccccc2)cc(Cl)c1OCc1ccccc1 | 22.3 µM | 24.9 µM |
| O=C(c1ccc(CNc2c(N3CCCC3)c(=O)c2=O)cc1)N1CC=C(c2ccccc2)CC1 | 0.76 µM | 0.87 µM |
| Cc1ccc2nc(-c3cccc(Br)c3)cc(C(=O)NC3=NCCS3)c2c1 | 14 µM | 28.9 µM |
| Cc1nc(NC(=O)c2ccccc2)sc1C1(C)CC(c2ccc(OC(F)(F)F)cc2)=NO1 (configuration not stated) | 24.6 µM | 41.1 µM |
| CN(C)CCOc1nc(-c2ccccc2)nc2c1oc1ccccc12 | 11.8 µM | 16.3 µM |
| O=C(/C=C\c1cccs1)N1CCN(Cc2ccc3c(c2)OCO3)CC1 | 1.48 µM | 5.53 µM |
| COC(=O)c1ccc(-n2cnc3ccccc32)nc1 | 13.9 µM | 45.1 µM |
| Cc1ccccc1NC1=C/C(=N\S(=O)(=O)c2cccs2)c2ccccc2C1=O | 7.97 µM | 11.8 µM |
| Cn1cnnc1SCc1ccc(C(=O)N=Nc2c(O)n(Cc3ccc(Cl)cc3)c3ccccc23)cc1 | 2.97 µM | 3.4 µM |
| O=C(C[n+]1ccc(C(=O)N/N=C/c2ccc(O)cc2)cc1)c1ccccc1 | 4.47 µM | > 100 µM |
| CCOc1ccc(NC(=O)CSc2cn[nH]n2)cc1 | 57.1 µM | > 100 µM |
| CCOc1cc(C=O)cc(N=Nc2cccc([N+](=O)[O-])c2)c1O | 3.98 µM | 11.6 µM |
| O=C(CSc1nc2ncc(Br)cc2[nH]1)Nc1ccc2c(c1)OCO2 | 6.01 µM | 16.1 µM |
| Cc1ccc(C(=O)O/N=C(\N)c2ccc(Br)cc2)cc1C | 98.9 µM | > 100 µM |
| CCCCn1nc(C(=O)N[C@@H](CCSC)c2nc3ccccc3[nH]2)c2ccccc2c1=O | 53 µM | 78.5 µM |

| Structure (SMILES) | IC50 | IC90 |
| --- | --- | --- |
| CCSc1ccc2c(c1)N(CCCN1CCN(C)CC1)c1ccccc1S2 | 19.1 µM | 26.5 µM |
| CCn1c(NC(=O)c2nn(C)cc2Br)nc2ccccc21 | 4.39 µM | 12.7 µM |
| COC(=O)c1cc(-c2cccc(OC)c2)on1 | 0.37 µM | > 100 µM |
| Nc1nc2ccccc2n1/N=C/c1ccc(Br)cc1 | 12.2 µM | > 25 µM |
| CCOC(=O)c1cc(-c2ccccc2)nc2c1c(C)nn2-c1ccccn1 | 2.97 µM | 27.2 µM |
| CC1(c2ccc(OC(F)F)cc2)NC(=O)N(CC(=O)c2ccc3c(c2)OCO3)C1=O (configuration not stated) | 23.6 µM | 32.2 µM |
| CCc1ccc2c(c1)C1(C(=O)N2)N2CCCC2C(C(=O)c2ccc3ccccc3c2)C12C(=O)Nc1ccccc12 (configuration not stated) | 13.1 µM | 30.9 µM |
| CCCCCCCCn1cnc2c(N)c(C)c(C)cc21 | 37.4 µM | 60 µM |
| COc1ccc(/C=C/CN2CCC(CO)(Cc3ccccc3Cl)CC2)cc1 | 23.1 µM | 26.6 µM |
| N#Cc1nccnc1S(=O)(=O)c1cccs1 | 40.6 µM | 61.1 µM |
| O=C(Nc1ccc(C2=NCCN2)cc1)c1ccc(Cl)c(C(=O)Nc2ccc(C3=NCCN3)cc2)c1 | 11.3 µM | 12.3 µM |
| C=CCN(CC(=O)c1sc(C(=O)OCC)nc1C)c1cccc(Br)c1 | 19.4 µM | 28.8 µM |
| Cc1c(C(=O)Nc2nc3ccccc3[nH]2)oc2c(Cl)cccc12 | 68 µM | > 100 µM |
| NC1=NC[C@H](Cc2ccc(O)cc2)N1CCc1cccc2ccccc12 | 21.6 µM | 24.1 µM |
| CC1=NN(c2ccc(C)c(C)c2)C(=O)/C1=C\C=C\c1ccc([N+](=O)[O-])o1 | 3.14 µM | 15.5 µM |
| CCOC(=O)Oc1c(OC)cc(C(=O)O[C@@H]2C[C@@H]3CN4CCc5c([nH]c6cc(OC)ccc56)[C@H]4C[C@@H]3[C@H](C(=O)OC)[C@H]2OC)cc1OC | 19.7 µM | 27.3 µM |
| Cc1ccc(NC(=O)COc2ccc(-n3ccnc3)cc2)cc1Cl | 24.8 µM | 28.8 µM |
| N#Cc1c([N+](=O)[O-])cc([N+](=O)[O-])cc1S(=O)(=O)Cc1ccccc1 | 15.3 µM | 22.6 µM |
| CSC1=NC(C)(C)C=C(/C=C/c2ccc(Cl)cc2)N1 | 21.5 µM | 44.5 µM |

| Structure (SMILES) | IC50 | IC90 |
| --- | --- | --- |
| CCCc1cc(=O)n2[nH]c(C)c(-c3ccc(Cl)cc3)c2n1 | 6.8 µM | 18.1 µM |
| O=S(=O)(Nc1ccn(-c2ccccc2)n1)c1ccc(Br)cc1 | 95.4 µM | > 100 µM |
| CCCOc1ccc(N2CC(C(=O)Nc3ccccn3)CC2=O)cc1 (configuration not stated) | 16.3 µM | 59.1 µM |
| CN(C)S(=O)(=O)c1cccc(NC(=O)CSc2cccc3cccnc23)c1 | 58.6 µM | 65.1 µM |
| O=C(Nc1ccc(Cl)cc1)N1CCN(c2ccc3nnc(-c4ccc(F)cc4)n3n2)CC1 | 13.8 µM | 26.4 µM |
| Cc1cc(N2CCC(C)CC2)nc(-n2nc(C)cc2C)n1 | < 0.2 µM | 5.47 µM |
| c1ccc(-c2nccc(-c3ccc(-n4cnc5ccccc54)cc3)n2)nc1 | 11 µM | 16.5 µM |
| O=C(Nc1cc(N2CCOCC2)ncn1)NC1(C(F)(F)F)Oc2ccc(Cl)cc2O1 (configuration not stated) | 11.8 µM | 18.9 µM |
| COc1cc(N=Nc2ccc3ccccc3c2)ccc1O | 37.8 µM | 63.1 µM |
| CCO[C@H]1OC(C(=O)NCc2nc3ccccc3[nH]2)=C[C@@H](c2csc3ccccc23)[C@@H]1CCCO | 44.8 µM | 50.5 µM |
| Cc1nc(NCCc2ccccc2)c2oc3ccccc3c2n1 | 6.49 µM | 14.2 µM |
| CCOc1ccc(N/C(C)=C/C(=O)c2ccc3c(c2)OCCO3)cc1 | 11.6 µM | 47.2 µM |
| CC1=NOC(=O)/C1=C/c1ccc(-c2ccc(Cl)cc2)o1 | 5.22 µM | 70.3 µM |
| CCCCCCCCCCCCCCCC[N+](C)(C)CC | 30.3 µM | 43 µM |
| COC(=O)CC(=O)N1CCN(c2ccc(Cl)c(Cl)c2)CC1 | 20 µM | 55 µM |
| CCOC(=O)CSCC(=O)N1CCC(Cc2ccccc2)CC1 | 5.35 µM | 19.6 µM |
| CC1(C)CC(NC(=O)c2ccc(Cl)c(S(=O)(=O)N(Cc3ccccc3)c3ccccc3)c2)CC(C)(C)N1 | 24.5 µM | 27.9 µM |
| CCc1ccc(/C=C2/C(=O)N(C)C(=S)N2CC(=O)OC)s1 | 1.46 µM | 5.75 µM |
